Like-named read-outs stand apart in the source and are kept apart here. Square brackets hold non-standard residues; d marks the D form. Peptide text beside a SMILES is read from it. * marks the point of attachment. Isoquinolin(3-yl)carbonyl = O=C(c1cc2ccccc2cn1)*; Acetyl(3-pyridyl) = O=C(Cc1cccnc1)*; Acetyl(4-pyridyl) = O=C(Cc1ccncc1)*; Benzoyl(4-OH) = O=C(c1ccc(O)cc1)*; d3Pal = N[C@H](Cc1cccnc1)C(=O)O; Isonicotinoyl = O=C(c1ccncc1)*; X5 = O=C(c1nccc2ccccc12)*
Key:
Aβ1-40 = Aβ1-40 (Homo sapiens, UniProt P05067); type: biochemical; design: ΔLag: unit not given here; conditions: for ΔLag 5.0 μM / ΔLag 0.5 μM / ΔLag […]: Table VI; for ΔLag 5.0 μM: 5.0 μM test compound; for ΔLag 3 μM: 3 μM test compound; for ΔLag 4 μM: 4 μM test compound; for ΔLag: Table XI; for ΔLag […]: […] test compound
Sequence of Aβ1-40 (P05067 672-711): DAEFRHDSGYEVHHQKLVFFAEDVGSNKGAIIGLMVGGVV
From the text: The nucleation assay is employed to determine the ability of test compounds to alter (e.g. inhibit) the early events in formation of β-AP fibers from monomeric β-AP. Characteristic of a nucleated polymerization mechanism, a lag time is observed prior to nucleation, after which the peptide rapidly forms fibers as reflected in a linear rise in turbidity. The time delay before polymerization of β-AP monomer can be quantified as well as the extent of formation of insoluble fiber by light scattering (turbidity). Polymerization reaches equilibrium when the maximum turbidity reaches a plateau The turbidity of a solution of natural β-AP in the absence or presence of various concentrations of a β-amyloid modulator compound is determined by measuring the apparent absorbance of the solution at 405 nm (A405 nm) over time. The threshold of sensitivity for the measurement of turbidity is in the range of 15-20 μM β-AP. […] This assay can be performed using stirring or shaking to accelerate polymerization, thereby increasing the speed of the assay. Moreover the assay can be adapted to a 96-well plate format to screen multiple compounds.
HFIP-solubilized peptide is sonicated in a waterbath sonicator for 5 min at highest setting, then evaporated to dryness under a stream of argon. The peptide film is resuspended in anhydrous dimethylsulfoxide (DMSO) at a concentration of 6.9 mg/ml (25× concentration), sonicated for 5 min as before, then filtered through a 0.2 micron nylon syringe filter (VWR cat. No.28196-050). Test compounds are dissolved in DMSO at a 100× concentration. […] Ten microliters of the mixture is then added to the bottom of a well of a Corning Costar ultra low binding 96-well plate (Coming Costar, Cambridge Mass.; cat. No. 2500). Ninety microliters of water is added to the well, the plate is shaken on a rotary shaken at a constant speed at room temperature for 30 seconds, an additional 100 μl of 2× PTL buffer (20 mM NaH2PO4, 300 mM NaCl, pH 7.4) is added to the well, the plate is reshaken for 30 seconds and a baseline (t=0) turbidity reading is taken by measuring the apparent absorbance at 405 nm using a Bio-Rad Model 450 Microplate Reader. The plate is then returned to the shaker and shaken continuously for 5 hours. Turbidity readings are taken at 15 minute intervals.
β-amyloid aggregation in the absence of any modulators results in enhanced turbidity of the natural β-AP solution (i.e., an increase in the apparent absorbance at 405 nm over time). […]

[1] = Safety profile for PPI-558, daily subcutaneous injection for 14 days; conditions: female rats, 3 and 30 mg/kg s.c. daily for 14 days
Procedure: On day 15, animals were sacrificed 1 hour post administration.

[2] = Brain uptake of tritium-labelled PPI-558 after subcutaneous injection; conditions: male rats, single subcutaneous injection 4.6 mg/kg, 2 hours (FIG. 4)
Procedure: Male Sprague-Dawley rats (259-280 g) received a single subcutaneous injection in the nape of the neck (4.6 mg/kg at 1 ml/kg=4.6 mg/ml in 100% Sesame Oil). At various time points post administration (2, 8 and 24 hours; n=4/time point), the animlas were anesthetized. Trunk blood was taken to determine plasma levels of the parent compound and the left side of the brain was perfused with 1 ml of saline over 30 seconds via the left sommon carotid artery. The brain was rapidly removed and the left forebrain (perfused) was subjected to capillary depletion.

[3] = Modulator compound stability in cerebrospinal fluid; conditions: 75% Rhesus monkey CSF, 37° C., 24 hours, HPLC; compared with PPI-368 (FIG. 1)
Procedure: The stability of a modulator compound in cerebrospinal fluid (CSF) can be assayed in an in vitro assay as follows. […] All sample handling is carried out in a laminar flow hood and test solutions are maintained at 37° C. during the assay. […] Samples (at the 0 time point and the 24 hour time point) are analyzed at room temperature using reverse-phase HPLC. A microbore column is used to maximize sensitivity. The parameters for analytical HPLC are as follows:
Chromatographic analysis is performed using a Hewlett Packard 1090 series II HPLC. The column used for separation is a C4, 5 μm, 1×250 mm (Vydac #214TP51). The flow rate is 50 μL/min and the elution profile of the test compounds is monitored at 214, 230, 260 and 280 nm.

[4] = Table IV, hydrophobic modifying groups, 5 μM test compound
[5] = Table II, second series, different stock of Aβ1-40, 2 μM test compound
[6] = Table II, second series, different stock of Aβ1-40
[7] = Table II, second series, different stock of Aβ1-40, 5 μM test compound
[8] = Table V, hydroxylated and oxygenated modifying groups, 5 μM test compound
[9] = Table III, modifying groups derived from bile acids, 5 μM test compound

## 4-Hydroxybenzoyl-D-Leu-D-Val-D-Phe-D-Phe-D-Ala-NH2 [PPI-558]
Aβ1-40; Table VIII, 5 μM test compound
  ΔLag 5 μM: 2.0
[1]
  overt toxicity: No overt toxicity was observed
[2]
  ratio of brain versus plasma levels: almost twice

## CC(C)C[C@@H](NC(=O)CC[C@@H](C)[C@H]1CC[C@H]2[C@@H]3[C@H](O)C[C@@H]4C[C@H](O)CC[C@]4(C)[C@H]3C[C@H](O)[C@]12C)C(=O)N[C@@H](C(=O)N[C@H](Cc1ccccc1)C(=O)N[C@H](Cc1ccccc1)C(=O)N[C@H](C)C(=O)O)C(C)C [PPI-433, cholyl-D-Leu-D-Val-D-Phe-D-Phe-D-Ala-OH]
[3]
  stability in cerebrospinal fluid: significantly greater stability in CSF than the L-amino acid-based compound

## h-d(LVYFA)-nh2 [PPI-503]
Aβ1-40
  ΔLag 5.0 μM: 1.2

## 1-Adamantanecarbonyl-d(LVFF)-nh2 [PPI-492]
Aβ1-40; [4]
  ΔLag 5 μM: 1.1

## CA-d(LV(IY)FA)-oh [PPI-462]
Aβ1-40; [5]
  ΔLag 2 μM: 2.7
Aβ1-40; [6]
  ΔLag 3 μM: >2.7
  ΔLag 4 μM: >2.7
Aβ1-40; [7]
  ΔLag 5 μM: >2.7

## 4-Hydroxycinnamoyl-d(AFFVL)-nh2 [PPI-587]
Aβ1-40; Table IX, 5 μM test compound
  ΔLag 5 μM: 3.7

## Phenylacetyl-d(LVFF)-nh2 [PPI-480]
Aβ1-40; [4]
  ΔLag 5 μM: 1.0

## Glycolyl-d(AFFLL)-nh2 [PPI-592]
Aβ1-40; Table IX, 5 μM test compound
  ΔLag 5 μM: 1.8

## 2-Formylphenoxyacetyl-d(LVFFA)-nh2 [PPI-554]
Aβ1-40; Table IX, 5 μM test compound
  ΔLag 5 μM: 2.6

## 2-Hydroxycinnamoyl-d(LVFFA)-nh2 [PPI-536]
Aβ1-40; Table IX, 5 μM test compound
  ΔLag 5 μM: 1.4

## 3,7-Dihydroxy-2-naphthoyl-d(LFFVL)-nh2 [PPI-648]
Aβ1-40; Table IX, 5 μM test compound
  ΔLag 5 μM: 3.1

## Glycolyl-d(LVFFA)-nh2 [PPI-535]
Aβ1-40; Table IX, 5 μM test compound
  ΔLag 5 μM: 1.3
Aβ1-40; [8]
  ΔLag 5 μM: 1.4

## 4-Hydroxybenzoyl-d(AFFVL)-nh2 [PPI-629]
Aβ1-40; Table IX, 5 μM test compound
  ΔLag 5 μM: 2.9

## 3,4-Dihydroxycinnamoyl-d(LFFVL)-nh2 [PPI-593]
Aβ1-40; Table IX, 5 μM test compound
  ΔLag 5 μM: 2.0

## CC(C)C[C@@H](NC(=O)[C@H](NC(=O)[C@@H](Cc1ccccc1)NC(=O)[C@@H](Cc1ccccc1)NC(=O)[C@@H](C)NC(=O)c1nccc2ccccc12)C(C)C)C(N)=O [PPI-748, 1-Isoquinolinecarboxyl-d(AFFVL)-nh2] (X5-[dA][dF][dF][dV][dL]-NH2)
Aβ1-40; 5 μM test compound
  ΔLag: <3

## CA-d(LVF(IY)A)-oh [PPI-463]
Aβ1-40; [5]
  ΔLag 2 μM: >2.7
Aβ1-40; [6]
  ΔLag 3 μM: >2.7
  ΔLag 4 μM: >2.7
Aβ1-40; [7]
  ΔLag 5 μM: >2.7

## 4-Hydroxyphenylacetyl-d(LVFFA)-nh2 [PPI-559]
Aβ1-40; Table VIII, 5 μM test compound
  ΔLag 5 μM: 3.5

## 4-Hydroxyphenylacetyl-d(LFFVL)-nh2 [PPI-649]
Aβ1-40; Table IX, 5 μM test compound
  ΔLag 5 μM: 5.1

## Cholyl-LVFFA-oh [PPI-424]
Aβ1-40; [9]
  ΔLag 5 μM: >6.0

## Hyodeoxycholyl-LVFFA-oh [PPI-520]
Aβ1-40; [9]
  ΔLag 5 μM: >2.3
Aβ1-40; Table IX, 5 μM test compound
  ΔLag 5 μM: 1.5

## Ac-d(LVFFA)-nh2 [PPI-501]
Aβ1-40; Table IX, 5 μM test compound
  ΔLag 5 μM: 1.4

## CC(C)C[C@@H](NC(=O)[C@H](NC(=O)[C@@H](Cc1ccccc1)NC(=O)[C@@H](Cc1ccccc1)NC(=O)[C@@H](C)NC(=O)c1ccncc1)C(C)C)C(N)=O [PPI-732, Isonicotinoyl-d(AFFVL)-nh2] (Isonicotinoyl-[dA][dF][dF][dV][dL]-NH2)
Aβ1-40; 5 μM test compound
  ΔLag: <2

## Hydrocinnamoyl-d(FFVL)-oh [PPI-619]
Aβ1-40; Table IX, 5 μM test compound
  ΔLag 5 μM: 2.0

## 3-Formylbenzoyl-d(LVFFA)-nh2 [PPI-546]
Aβ1-40; Table IX, 5 μM test compound
  ΔLag 5 μM: 1.9

## CA-d(LVYFA)-oh [PPI-455]
Aβ1-40; [5]
  ΔLag 2 μM: 1.8
Aβ1-40; [6]
  ΔLag 3 μM: 2.0
  ΔLag 4 μM: 2.3
Aβ1-40; [7]
  ΔLag 5 μM: >2.7

## h-d(LVFA)-oh [PPI-479]
Aβ1-40; [5]
  ΔLag 2 μM: 1.1
Aβ1-40; [6]
  ΔLag 3 μM: 0.9
  ΔLag 4 μM: 1.0
Aβ1-40; [7]
  ΔLag 5 μM: 1.1

## cholyl-Leu-Val-Phe-Phe-Ala-NH2 [PPI-382]
Aβ1-40; Table I, 5 μM Aβ1-40, 2 μM test compound, ratio of lag time with compound to lag time of control
  ΔLag 2 μM: >10
Aβ1-40; Table I, 5 μM Aβ1-40, 5 μM test compound, ratio of lag time to control
  ΔLag 5 μM: >12

## Pepstatin A [PPI-516, reference compound]
Aβ1-40; [8]
  ΔLag 5 μM: 1.6

## 3,5-Dihydroxy-2-naphthoyl-d(AFFVL)-nh2 [PPI-568]
Aβ1-40; Table IX, 5 μM test compound
  ΔLag 5 μM: >6

## CC(C)C[C@@H](NC(=O)[C@H](NC(=O)[C@@H](Cc1ccccc1)NC(=O)[C@@H](Cc1ccccc1)NC(=O)[C@@H](C)NC(=O)Cc1ccncc1)C(C)C)C(N)=O [PPI-741, 4-Pyridylacetyl-d(AFFVL)-nh2] ({Acetyl(4-pyridyl)}-[dA][dF][dF][dV][dL]-NH2)
Aβ1-40; 2.5 μM test compound
  ΔLag: 2.0

## 3-(2-Hydroxyphenyl)propionyl-d(AFFVL)-nh2 [PPI-610]
Aβ1-40; Table IX, 5 μM test compound
  ΔLag 5 μM: 4.5

## H-d(LVFFL)-nh2 [PPI-655]
Aβ1-40; Table X, 5 μM test compound
  ΔLag 5 μM: >6

## Glycolyl-d(FFFVL)-nh2 [PPI-596]
Aβ1-40; Table IX, 5 μM test compound
  ΔLag 5 μM: 3.6
Aβ1-40; [8]
  ΔLag 5 μM: 3.6

## Chenodeoxycholyl-LVFFA-oh [PPI-521]
Aβ1-40; [9]
  ΔLag 5 μM: >2.3
Aβ1-40; Table IX, 5 μM test compound
  ΔLag 5 μM: 3.6

## Ac-d(LFFFL)-nh2 [PPI-644]
Aβ1-40; Table IX, 5 μM test compound
  ΔLag 5 μM: 2.1

## Acetyl-d(VF)-PEA [PPI-495]
Aβ1-40; [4]
  ΔLag 5 μM: 1.0

## h-d(AFFLL)-nh2 [PPI-577]
Aβ1-40; 0.5 μM test compound
  ΔLag 0.5 μM: 1.0
Aβ1-40
  ΔLag 5.0 μM: >7.5
  ΔLag […]: 1.3
Aβ1-40; Table X, 5 μM test compound
  ΔLag 5 μM: >6

## h-d(FFFVL)-nh2 [PPI-579]
Aβ1-40; 0.5 μM test compound
  ΔLag 0.5 μM: 1.8
Aβ1-40
  ΔLag 5.0 μM: >7.5
  ΔLag […]: 6.3
Aβ1-40; Table X, 5 μM test compound
  ΔLag 5 μM: >6

## CC(C)C[C@@H](NC(=O)[C@H](NC(=O)[C@@H](Cc1ccccc1)NC(=O)[C@@H](Cc1ccccc1)NC(=O)[C@@H](Cc1cccnc1)NC(=O)c1ccc(O)cc1)C(C)C)C(N)=O [PPI-665, 4-Hydroxybenzoyl-d(Pal-FFVL)-nh2] ({Benzoyl(4-OH)}-[d3Pal][dF][dF][dV][dL]-NH2)
Aβ1-40; 0.5 μM test compound
  ΔLag: 1.5
Aβ1-40; 5 μM test compound
  ΔLag: 2

## h-d(FFFLV)-nh2 [PPI-533]
Aβ1-40; 0.5 μM test compound
  ΔLag 0.5 μM: 1.5
Aβ1-40
  ΔLag 5.0 μM: >7.5
  ΔLag […]: 3.8
Aβ1-40; Table X, 5 μM test compound
  ΔLag 5 μM: >6

## 3-Hydroxyphenylacetyl-d(LVFF)-nh2 [PPI-483]
Aβ1-40; Table IX, 5 μM test compound
  ΔLag 5 μM: 2.9
Aβ1-40; [8]
  ΔLag 5 μM: 2.2

## Dihphenylacetyl-d(LVFF)-nh2 [PPI-484]
Aβ1-40; [4]
  ΔLag 5 μM: 1.3

## 3,4-Dihydroxycinnamoyl-d(LVFF)-nh2 [PPI-491]
Aβ1-40; [8]
  ΔLag 5 μM: 3.0

## 2-Hydroxyphenylacetyl-d(LVFF)-nh2 [PPI-481]
Aβ1-40; [8]
  ΔLag 5 μM: 2.0

## CC(C)C[C@@H](NC(=O)[C@H](NC(=O)[C@@H](Cc1ccccc1)NC(=O)[C@@H](Cc1ccccc1)NC(=O)[C@@H](C)NC(=O)c1cc2ccccc2cn1)C(C)C)C(N)=O [PPI-749] ({Isoquinolin(3-yl)carbonyl}-[dA][dF][dF][dV][dL]-NH2)
Aβ1-40; 5 μM test compound
  ΔLag: 3

## CC(C)C[C@@H](NC(=O)[C@H](NC(=O)[C@@H](Cc1ccccc1)NC(=O)[C@@H](Cc1ccccc1)NC(=O)[C@@H](C)NC(=O)Cc1cccnc1)C(C)C)C(N)=O [PPI-730, 3-Pyridylacetyl-d(AFFVL)-nh2] ({Acetyl(3-pyridyl)}-[dA][dF][dF][dV][dL]-NH2)
Aβ1-40; 5 μM test compound
  ΔLag: 2

## 5-Hydantoinacetyl-d(LVFFA)-nh2 [PPI-539]
Aβ1-40; Table IX, 5 μM test compound
  ΔLag 5 μM: 2.4

## Butanoyl-d(LVFFA)-nh2 [PPI-525]
Aβ1-40; [4]
  ΔLag 5 μM: 1.0

## 2,4-Dihydroxybenzoyl-d(LVFFA)-nh2 [PPI-532]
Aβ1-40; Table IX, 5 μM test compound
  ΔLag 5 μM: 1.7

Source: patent publication US20070248996A1, “Modulators of beta-amyloid peptide aggregation comprising D-amino acids” (Paraecis Pharmaceuticals, Inc., priority 1995, published 2007)
